Experimental data published in PubChem BioAssay AID248 (DTP/NCI, 2004).
Where “and” joins values, the source holds several entries; their conditions need not be identical. Equal entries are not always repeated. Toxic doses and inconclusive results are not listed. No stated cut-off is given here; in the data, active means T/C of 150% or more; inactive means T/C below 125%.

Tested on: L1210 leukemia ip in BDF1 mice, survival T/C
Test: NCI In Vivo Anticancer Drug Screen. Data for tumor model L1210 Leukemia (intraperitoneal) in B6D2F1 (BDF1) mice
Conditions: endpoint: mean survival time, higher = longer survival
In short: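 Tumor cells were implanted, animals were treated, and survival was followed. The result divides the treated measurement by the vehicle-control measurement.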

[1] = dose: 100.0 mg/kg/injection, schedule: Q01DX009 (ip), vehicle: saline with Tween-80
[2] = dose: 200.0 mg/kg/injection, schedule: Q01DX009 (ip), vehicle: saline with Tween-80
[3] = dose: 100.0 mg/kg/injection, schedule: Q04DX003 (ip), vehicle: saline with Tween-80
[4] = dose: 200.0 mg/kg/injection, schedule: Q04DX003 (ip), vehicle: saline with Tween-80
[5] = dose: 400.0 mg/kg/injection, schedule: Q01DX009 (ip), vehicle: saline with Tween-80
[6] = dose: 400.0 mg/kg/injection, schedule: Q04DX003 (ip), vehicle: saline with Tween-80
[7] = dose: 100.0 mg/kg/injection, schedule: Q04DX002 (ip), vehicle: Klucel (hydroxypropylcellulose) (HPC)
[8] = dose: 200.0 mg/kg/injection, schedule: Q04DX002 (ip), vehicle: Klucel (hydroxypropylcellulose) (HPC)

Measured: T/C

NC(=O)c1cn[nH]c1/N=N/N(CCF)CCF
inactive: dose: 9.5 mg/kg/injection, schedule: Q01DX001 (ip), vehicle: other 111 % of control | dose: 10.0 mg/kg/injection, schedule: Q01DX009 (ip), vehicle: other 119 % of control | dose: 19.0 mg/kg/injection, schedule: Q01DX001 (ip), vehicle: other 124 % of control

CCOC(=O)NCC(CCN1CCCC1)(c1cccc2ccccc12)C(C)C (configuration not stated)
inactive: dose: 12.5 mg/kg/injection, schedule: Q01DX009 (ip), vehicle: Klucel (hydroxypropylcellulose) (HPC) 104 % of control | dose: 12.5 mg/kg/injection, schedule: Q04DX003 (ip), vehicle: Klucel (hydroxypropylcellulose) (HPC) 87 % of control | dose: 25.0 mg/kg/injection, schedule: Q01DX009 (ip), vehicle: Klucel (hydroxypropylcellulose) (HPC) 102 % of control | dose: 50.0 mg/kg/injection, schedule: Q01DX009 (ip), vehicle: Klucel (hydroxypropylcellulose) (HPC) 101 % of control | dose: 50.0 mg/kg/injection, schedule: Q04DX003 (ip), vehicle: Klucel (hydroxypropylcellulose) (HPC) 95 % of control

BrCC(CCCc1ccccc1)CCc1ccccc1 (configuration not stated)
inactive: dose: 100.0 mg/kg/injection, schedule: Q04DX002 (ip), vehicle: saline with Tween-80 93 % of control | dose: 200.0 mg/kg/injection, schedule: Q04DX002 (ip), vehicle: saline with Tween-80 90 % of control | dose: 400.0 mg/kg/injection, schedule: Q04DX002 (ip), vehicle: saline with Tween-80 101 % of control

CCOC(=O)Cn1c(C(F)(F)F)nc2nc(Cl)c(Cl)nc21
inactive: dose: 50.0 mg/kg/injection, schedule: Q01DX009 (ip), vehicle: saline with Tween-80 97 % of control | [1] 108 % of control | [2] 97 % of control

CCSC1=C(N2CC2)C(=O)C(SCC)=C(N2CC2)C1=O
inactive: dose: 150.0 mg/kg/injection, schedule: Q04DX003 (ip), vehicle: saline 96 % of control | dose: 225.0 mg/kg/injection, schedule: Q04DX003 (ip), vehicle: saline 96 % of control

Clc1ccc2c(Cl)ncnc2c1
inactive: dose: 13.0 mg/kg/injection, schedule: Q01DX Z (ip), vehicle: methylcellulose (MC) 100 % of control | dose: 20.0 mg/kg/injection, schedule: Q01DX Z (ip), vehicle: methylcellulose (MC) 100 % of control | dose: 30.0 mg/kg/injection, schedule: Q01DX Z (ip), vehicle: methylcellulose (MC) 104 % of control | dose: 45.0 mg/kg/injection, schedule: Q01DX Z (ip), vehicle: methylcellulose (MC) 105 % of control | dose: 50.0 mg/kg/injection, schedule: Q01DX009 (ip), vehicle: saline 96 % of control | dose: 50.0 mg/kg/injection, schedule: Q04DX003 (ip), vehicle: saline 97 % of control | dose: 100.0 mg/kg/injection, schedule: Q01DX001 (ip), vehicle: saline 99 % of control | dose: 100.0 mg/kg/injection, schedule: Q01DX009 (ip), vehicle: saline 100 % of control | dose: 100.0 mg/kg/injection, schedule: Q04DX003 (ip), vehicle: saline 97 % of control | dose: 200.0 mg/kg/injection, schedule: Q01DX001 (ip), vehicle: saline 91 % of control | dose: 200.0 mg/kg/injection, schedule: Q04DX003 (ip), vehicle: saline 94 % of control

Cc1cc(C(N)=O)c(C#N)c(=O)[nH]1
inactive: dose: 75.0 mg/kg/injection, schedule: Q01DX001 (ip), vehicle: steriod suspending solution 94 % of control | dose: 150.0 mg/kg/injection, schedule: Q01DX001 (ip), vehicle: steriod suspending solution 95 % of control

COc1ccc(N2C(=O)CCC2=O)cc1
inactive: [1] 107 % of control | [3] 106 % of control | [2] 95 % of control | [4] 92 % of control | [5] 98 % of control | [6] 111 % of control

N#CC(C#N)N=O (tested in a mixture with another compound)
inactive: dose: 25.0 mg/kg/injection, schedule: Q04DX002 (ip), vehicle: saline 89 % of control | dose: 50.0 mg/kg/injection, schedule: Q04DX002 (ip), vehicle: saline 101 % of control | dose: 100.0 mg/kg/injection, schedule: Q04DX002 (ip), vehicle: saline 95 % of control and 97 % of control | dose: 200.0 mg/kg/injection, schedule: Q04DX002 (ip), vehicle: saline 105 % of control

OC(OCCCCCCOC(O)C(Cl)(Cl)Cl)C(Cl)(Cl)Cl (configuration not stated)
inactive: [1] 93 % of control | [3] 98 % of control | [2] 98 % of control | [4] 104 % of control | [5] 106 % of control | [6] 98 % of control

CCCNC(=O)Oc1cccc2cccnc12
inactive: dose: 100.0 mg/kg/injection, schedule: Q01DX009 (ip), vehicle: Klucel (hydroxypropylcellulose) (HPC) 93 % of control and 95 % of control | [7] 97 % of control and 105 % of control | dose: 200.0 mg/kg/injection, schedule: Q01DX009 (ip), vehicle: Klucel (hydroxypropylcellulose) (HPC) 101 % of control and 112 % of control | [8] 102 % of control and 103 % of control | dose: 400.0 mg/kg/injection, schedule: Q01DX009 (ip), vehicle: Klucel (hydroxypropylcellulose) (HPC) 95 % of control

NC(N)=NN=C1CCCCC1
inactive: dose: 15.0 mg/kg/injection, schedule: Q01DX Z (ip), vehicle: saline 92 % of control | dose: 30.0 mg/kg/injection, schedule: Q01DX Z (ip), vehicle: saline 92 % of control | dose: 60.0 mg/kg/injection, schedule: Q01DX Z (ip), vehicle: saline 102 % of control | dose: 60.0 mg/kg/injection, schedule: Q01DX Z (oral), vehicle: saline 105 % of control | dose: 120.0 mg/kg/injection, schedule: Q01DX Z (ip), vehicle: saline 97 % of control | dose: 120.0 mg/kg/injection, schedule: Q01DX Z (oral), vehicle: saline 108 % of control | dose: 240.0 mg/kg/injection, schedule: Q01DX Z (oral), vehicle: saline 100 % of control | dose: 480.0 mg/kg/injection, schedule: Q01DX Z (oral), vehicle: saline 103 % of control

CC(=O)OC1CCC2(C)C(CCC3C2CCC2(C)C(C(C)C(=O)O)CCC32)C1 (configuration not stated)
inactive: [7] 100 % of control | [3] 104 % of control | [8] 97 % of control | [4] 98 % of control | dose: 400.0 mg/kg/injection, schedule: Q04DX002 (ip), vehicle: Klucel (hydroxypropylcellulose) (HPC) 94 % of control | [6] 93 % of control

C=CC1(CCC(C)C)C(=O)NC(=O)NC1=O
inactive: dose: 75.0 mg/kg/injection, schedule: Q01DX001 (ip), vehicle: saline 91 % of control | dose: 150.0 mg/kg/injection, schedule: Q01DX001 (ip), vehicle: saline 105 % of control | dose: 300.0 mg/kg/injection, schedule: Q01DX001 (ip), vehicle: saline 98 % of control
